Patent US9617259B2, “Histone deacetylase inhibitors and compositions and methods of use thereof” (CHDI Foundation, Inc., priority 2013, dated 2017)

The compounds below were run against human catalytic domain HDAC4 protein (amino acids 648-1032) (Homo sapiens (Human), UniProt P56524) (assay: Inhibition of HDAC4 catalytic domain enzymatic activity, fluorogenic substrate Boc-Lys(Tfa)-AMC). Conditions: read-out: Biochemical HDAC-4 IC50.
Source text: Analysis of Inhibition of HDAC4 with Class IIa Histone Deacetylase (HDAC) Inhibitors
The potency of Class IIa Histone Deacetylase (HDAC) inhibitors is quantified by measuring the Histone Deacetylase 4 (HDAC4) catalytic domain enzymatic activity using the fluorogenic substrate, Boc-Lys(Tfa)-AMC. The substrate is deacetylated to Boc-Lys-AMC by HDAC4. Cleavage by trypsin results in the release of the fluorophore AMC from the deacetylated substrate. The fluorescence of the sample is directly related to the histone deacetylase activity in the sample.
Serial dilutions of the HDAC inhibitors and control reference compound (1-(5-(3-((4-(1,3,4-oxadiazol-2-yl)phenoxy)methyl)-1,2,4-oxadiazol-5-yl)thiophen-2-yl)-2,2,2-trifluoroethanone) are made by first resuspending the lyophilized compound to a final concentration of 10 mM in 100% dimethyl sulfoxide (DMSO). Stocks of 60 μl aliquots of the 10 mM compound in DMSO are prepared and stored at −20° C. From one stock aliquot of each compound to be tested and the reference compound, a 16-point serial dilution is prepared according to
2 μl (200×) of each diluted solution and each control (full activity: 100% DMSO alone or full inhibition 1 mM) is stamped into V-bottomed polypropylene 384-well compound plates using either the Bravo (384-well head from Agilent) or 12.5 μl 16-channel Matrix multi-channel pipette (Matrix Technologies Ltd).
A working solution of enzyme is prepared from a 500 μg/ml stock aliquot of HDAC4 catalytic domain (thawed on ice) diluted to 0.2 μg/ml with assay buffer (50 mM Tris-HCl, 137 mM NaCl, 2.7 mM KCl, and 1 mM MgCl2 at pH 8 and equilibrated to room temperature) just prior to the addition of the enzyme to the assay.
5× (50 μM) substrate is prepared just prior to the addition to the assay. A 1 mM substrate stock is made by diluting a 100 mM Boc-Lys(Tfa)-AMC in DMSO solution 1:100 by adding it drop-wise to assay buffer (equilibrated to room temperature) while vortexing at slow speed to prevent precipitation. The 5× substrate is prepared by diluting the 1 mM substrate solution 1:20 by adding it drop-wise to assay buffer (equilibrated to room temperature) while vortexing at slow speed to prevent precipitation.
3× (30 μM) Developer/Stop Solution is prepared just prior to addition to the plate by diluting a stock solution of 10 mM reference compound 1:333 in 25 mg/ml trypsin (PAA Laboratories Ltd.) equilibrated to room temperature.
5 μl of each solution of 1:20 diluted compound from above is transferred to a clear bottomed, black, 384-well assay plate using the Bravo or the Janus (384-well MDT head from Perkin Elmer). Using a 16-channel Matrix multi-channel pipette, 35 μl of the working solution of HDAC4 catalytic domain enzyme (0.2 μg/ml in assay buffer) is transferred to the assay plate. The assay is then started by adding 10 μl of 5× (50 μM) substrate to the assay plates using either the Bravo, Janus or 16-channel Matrix multi-channel pipette. The assay plate is then shaken for two minutes on an orbital shaker at 900 rpm (rotations per minute). Next the plate is incubated for 15 minutes at 37° C. The reaction is stopped by adding 25 al of 3× (30 μM) developer/stop solution to the assay plates using either the Bravo, Janus or a 16-channel Matrix multi-channel pipette. Assay plates are then shaken for 5 minutes on an orbital shaker at 1200 rpm. Next, the assay plates are incubated at 37° C. for 1 hour in a tissue culture incubator. Finally, the fluorescence is measured (Excitation: 355 nm, Emission: 460 nm) using PerkinElmer EnVision in top read mode.

Sequence of human catalytic domain HDAC4 protein (amino acids 648-1032) (P56524 648-1032): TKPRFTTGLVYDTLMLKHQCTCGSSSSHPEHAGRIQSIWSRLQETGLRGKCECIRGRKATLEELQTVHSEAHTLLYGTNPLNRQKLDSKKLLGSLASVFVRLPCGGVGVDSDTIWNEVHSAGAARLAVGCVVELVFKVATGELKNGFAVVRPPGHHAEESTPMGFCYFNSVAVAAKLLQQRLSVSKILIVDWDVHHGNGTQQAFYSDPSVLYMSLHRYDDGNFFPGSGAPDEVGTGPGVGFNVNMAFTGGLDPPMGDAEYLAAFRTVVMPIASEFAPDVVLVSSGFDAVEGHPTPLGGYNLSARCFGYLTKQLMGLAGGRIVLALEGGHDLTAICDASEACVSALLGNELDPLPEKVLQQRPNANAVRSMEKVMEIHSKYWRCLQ

Compound | IC50
Cc1ncc(C2=C[C@](C(=O)NO)(c3cccc(F)c3C)CC2)cc1Cl [Example 26, (S)-3-(5-chloro-6-methylpyridin-3-yl)-1-(3-fluoro-2-methylphenyl)-N-hydroxycyclopent-2-enecarboxamide] | 10 nM
Cc1c(F)cccc1[C@@]1(C(=O)NO)C=C(c2ccn3ccnc3c2)CC1 [Example 21, (S)-1-(3-fluoro-2-methylphenyl)-N-hydroxy-3-(imidazo[1,2-a]pyridin-7-yl)cyclopent-2-enecarboxamide] | 10 nM
Cc1c(F)cccc1[C@@]1(C(=O)NO)C=C(c2cnn(C(F)F)c2)CC1 [Example 18, (S)-3-(1-(difluoromethyl)-1H-pyrazol-4-yl)-1-(3-fluoro-2-methylphenyl)-N-hydroxycyclopent-2-enecarboxamide] | 20 nM
Cc1c(F)cccc1[C@@]1(C(=O)NO)C=C(c2ccc3nc(C(F)(F)F)cnc3c2)CC1 [Example 20, (S)-1-(3-fluoro-2-methylphenyl)-N-hydroxy-3-(2-(trifluoromethyl)quinoxalin-6-yl)cyclopent-2-enecarboxamide] | 70 nM
Cc1c(F)cccc1[C@@]1(C(=O)NO)C=C(c2ccc3nccnc3c2)CC1 [Example 12, (S)-1-(3-fluoro-2-methylphenyl)-N-hydroxy-3-(quinoxalin-6-yl)cyclopent-2-enecarboxamide] | 10 nM
Cc1ncc(C2=C[C@@](C(=O)NO)(c3cccc(F)c3C)CC2)cn1 [Example 9, (R)-1-(3-fluoro-2-methylphenyl)-N-hydroxy-3-(2-methylpyrimidin-5-yl)cyclopent-2-enecarboxamide] | 26800 nM

The remaining lines, values ahead:

IC50 | Compound
550 nM | Cc1c(F)cccc1C1(C(=O)NO)CC=C(c2ccc3nccnc3c2)CC1 (centres unmarked) [Example 45, 3′-fluoro-N-hydroxy-2′-methyl-4-(quinoxalin-6-yl)-1,2,3,6-tetrahydro-[1,1′-biphenyl]-1-carboxamide]
40 nM | Cc1c(F)cccc1[C@@]1(C(=O)NO)C=C(C2CC2)CC1 [Example 32, (S)-3-cyclopropyl-1-(3-fluoro-2-methylphenyl)-N-hydroxycyclopent-2-enecarboxamide]
10 nM | Cc1c([C@@]2(C(=O)NO)C=C(c3ccc4cnn(C)c4c3)CC2)ccc(F)c1F [Example 42, (S)-1-(3,4-difluoro-2-methylphenyl)-N-hydroxy-3-(1-methyl-1H-indazol-6-yl)cyclopent-2-enecarboxamide]
10 nM | Cc1ncccc1C1=C[C@](C(=O)NO)(c2cccc(F)c2C)CC1 [Example 37, (S)-1-(3-fluoro-2-methylphenyl)-N-hydroxy-3-(2-methylpyridin-3-yl)cyclopent-2-enecarboxamide]
3600 nM | O=C(NO)C1(c2ccccc2)CC=C(c2cncc(F)c2)CC1 (centres unmarked) [Example 43, 4-(5-fluoropyridin-3-yl)-N-hydroxy-1,2,3,6-tetrahydro-[1,1′-biphenyl]-1-carboxamide]
20 nM | Cc1c(F)cccc1[C@@]1(C(=O)NO)C=C(c2ccnn2C)CC1 [Example 27, (S)-1-(3-fluoro-2-methylphenyl)-N-hydroxy-3-(1-methyl-1H-pyrazol-5-yl)cyclopent-2-enecarboxamide]

The compounds below were run on Jurkat E6-1 cells (assay: Inhibition of cellular HDAC activity in Jurkat E6-1 cells, fluorogenic substrate Boc-Lys(Tfa)-AMC). Conditions: read-out: Cell IC50.
Type: cell-based
Source text: Analysis of Inhibition of Cellular HDAC Activity with Class IIa Histone Deacetylase (HDAC) Inhibitors
The potency of Class IIa Histone Deacetylase (HDAC) inhibitors is quantified by measuring the cellular histone deacetylase enzymatic activity using the fluorogenic substrate, Boc-Lys(Tfa)-AMC. After penetration in Jurkat E6-1 cells, the substrate is deacetylated to Boc-Lys-AMC. After cell lysis and cleavage by trypsin, the fluorophore AMC is released from the deacetylated substrate only. The fluorescence of the sample is directly related to the histone deacetylase activity in the sample.
Jurkat E6.1 cells are cultured according to standard cell culture protocols in Jurkat E6.1 Growth Media (RPMI without phenol red, 10% FBS, 10 mM HEPES, and 1 mM Sodium Pyruvate). Jurkat E6.1 cells are counted using a Coulter Counter and resuspended in Jurkat E6.1 growth media at a concentration of 75,000 cells/35 μl. 35 μl or 75,000 cells is seeded into Greiner microtitre assay plates. The plates are then incubated at 37° C. and 5% CO2 while other assay components are being prepared. […]
5 μl of each solution of 1:20 diluted compound from above is transferred to the Greiner microtitre assay plates with 75,000 cells/well using the Bravo. […] Finally the top read fluorescence (Excitation: 355 nm, Emission: 460 nm) is measured using PerkinElmer EnVision.

Compound | IC50
Cc1ncc(C2=C[C@](C(=O)NO)(c3cccc(F)c3C)CC2)cn1 [Example 10, (S)-1-(3-fluoro-2-methylphenyl)-N-hydroxy-3-(2-methylpyrimidin-5-yl)cyclopent-2-enecarboxamide] | 380 nM
Cc1ncc(C2=C[C@@](C(=O)NO)(c3cccc(F)c3C)CC2)cn1 [Example 9, (R)-1-(3-fluoro-2-methylphenyl)-N-hydroxy-3-(2-methylpyrimidin-5-yl)cyclopent-2-enecarboxamide] | > 50000 nM
